What was measured:
[1] = In vitro human skin permeation study of topical gel formulations (Franz diffusion cells); type: in vitro ADME; conditions: saturated gel formulations, skin flux experiments
Text: The gel formulation of Example 8 was used as the donor phase to determine the permeation of Compound 1.002 through human skin and its effectiveness as a topical application. Three skin donors and three diffusion cells (for each donor) per formulation were used in the in vitro skin permeation experiments. Split thickness dermatomed (approximately at […] thickness) human cadaver skin, supplied by New York Firefighters Skin Bank, NY, was used to determine the permeation rate of the tested compound (i.e., the drug) in vitro. All in vitro skin permeation studies were conducted using the Vertical Diffusion Cells assembly with consoles (Model FDC-6), and heating controllers (Logan Instruments Inc. Somerset, NJ). Each assembly consisted of six vertical, jacketed (37° C.±0.5° C.) 12-mL Franz diffusion cells with magnetic stirrer and 1.767 cm^2 diffusion area.
(§1) Skin flux studies were run for a period of 48 hours. At predetermined intervals (2, 4, 8, 24 and 48 hours) after starting the experiment, the entire contents of the receiver compartment were collected for determining concentrations of the drug by HPLC. The receiver compartment was refilled with fresh receiver medium. The receiver medium was pH 7.4 phosphate buffer with 0.5 mg/ml of Oleath 20 with the saturation concentration of the drug in the receptor medium being 0.152 mg/ml. This solubility of the drug in the receiver medium was enough to ensure sink conditions throughout each collection interval.
Samples of the receptor phase were obtained at 2, 4, 8, 12, 24 and 48 h and concentrations of Compound 1.002 and 3-(4-morpholinothieno(3,2-d)pyrimidin-2-yl)phenol (metabolite of Compound 1.002, abbreviated as MTPP) were determined using a validated HPLC method. The metabolism of Compound 1.002 to MTPP takes place in the human skin by esterase enzymes.
HPLC method: Column—Gemini C-18 4.6×150 mm, 5 μm particle size; Mobile Phase—water:acetonitrile 25:75 containing 0.1% TFA; Flow Rate—1 mL/min; Detection—274 nm; Column Temperature—40° C.; and Run Time—10 min. The retention times for MTPP and Compound 1.002 were 3.9 and 7.2 minutes, respectively.
The skin flux of drugs and cumulative amount of drugs permeated (sum of MTPP and Compound 1.002) for a period of 48 hours were calculated and are shown in Table 3. FIG. 3 represents a plot of Cumulative amount permeated versus time.

[2] = Saturation concentration in formulation or receiver medium; type: physicochemical; conditions: gel formulation with excipients of Example 8 (Table 2)
Description: The liquid excipients, i.e. DMSO, oleic acid, Transcutol® P, and dipropylene glycol were mixed in a 20-mL vial, by vortex agitation. The active ingredient, a compound of formula (I), for example Compound 1.002 was then added, and the vial content was sonicated for 10 minutes to dissolve the compound. […] Hydroxylpropyl cellulose (HPC) was added, and the vial was agitated by vortex for another ten minutes to obtain the gel formulation. The viscosity of the clear gel was measured to be in a range of about 7,000 to 10,000 centipoise (cp).
as §1

[3] = Accelerated stability study of topical gel formulations at 80° C.; type: physicochemical; conditions: gel formulation (Table 2 excipients), 80° C.
Description: Topical gel formulations were prepared using excipients as shown in Table 2 according to Example 8, in which Compounds 1.002, 1.012, and 1.006 were used as the active ingredient, respectively. These gel formulations were subjected to stability study at 80° C. for 10 days. Stability under the condition of at 80° C. for 10 days is expected to be approximately equivalent to the stability for three (3) years at room temperature. A relative purity of the tested compound after being exposed for 5 days and 10 days at 80° C. was determined by HPLC, as compared to its initial purity (at day 0).
The values shown in the table are percent hydrolysis of the respective compounds to the parent compound MTPP.
Topical gel formulations of Compound 1.002 were prepared using excipients as shown in Table 2 according to Example 8, in which the content of oleic acid varied at 1%, 2%, 5%, and 10%, respectively. These gel formulations were subjected to stability study at 80° C. for 10 days, which is expected to be approximately equivalent to the stability for three (3) years at room temperature. A purity of the tested compound on day 0, 5, 7, and 10 at 80° C. was determined by HPLC. The detected impurity of the tested compound appears to be the hydrolysis product, as MTPP. Table 17 represents stability data of Compound 1.002 in topical formulations having oleic acid at various contents.
Gel formulations of Example 17 were subjected to stability study at 80° C. for 10 days. Stability under the condition of at 80° C. for 10 days is expected to be approximately equivalent to the stability for three (3) years at room temperature. A relative purity of Compound 1.002 after being exposed for 5 days and 10 days at 80° C. was determined by HPLC, as compared to its initial purity (at day 0).

[4] = In vitro human skin permeation study of topical gel formulations (Franz diffusion cells); type: in vitro ADME; conditions: human skin; for Cumulative permeation, Compound 1.012 / Hydrolysis of Cmpd. 1.012 to MTPP: Study-6, gel saturated at 58 mg/mL; for Cumulative permeation (intact compound): Study-4, saturated gel
MTOR/FRAP1 = molecular target: T1, MTOR/FRAP1 (Homo sapiens, UniProt P42345); assay: Lipid kinase inhibitory activity, ADP-Glo; type: biochemical
T1 construct: purchased Reaction Biology Corporation (RBC)
Description: (§2) Lipid kinases: Lipid kinases from Reaction Biology Corporation (RBC) in ADP-Glo format were used.
(§3) Assay Description: The kinase reactions utilized ATP and produced ADP as a byproduct. The ADP production was quantified by ADP-Glo luminescence detection. This assay was a 3-step reaction. First, the kinase reaction with lipid substrate was carried out in the presence of ATP, and the reaction was quenched and depleted remaining ATP with ADP-Glo™ reagent, and then finally ADP was converted to ATP which was measured using a luciferase/luciferin reaction.
(§4) Assay Procedure: The assay was performed according to the steps as follows: • 1. Preparing substrate in freshly prepared reaction buffer; • 2. Delivering kinase into the substrate solution and gently mixing; • 3. Delivering compounds in […] into the kinase reaction mixture by Acoustic technology (Echo550; nanoliter range), incubating for 20 minutes at room temperature; • 4. Delivering ATP into the reaction mixture to initiate the reaction; • 5. Incubating for 30 minutes at 30° C.; • 6. Quenching the reaction with ADP-Glo reagent and incubating for 40 minutes; • 7. Adding Detection Mixture and incubating for 30 minutes; and • 8. Measuring luminescence.
(§5) Data Analysis: The luminescence was converted into μM ADP production based on ADP standard curves. The nonlinear regression to obtain the standard curve and IC50 values were performed using Graphpad Prism software.

PI3K (p110a(E542K)/p85a) = molecular target: T2, PI3K (p110a(E542K)/p85a) (Homo sapiens, UniProt P42336, E542K); assay: Lipid kinase inhibitory activity, ADP-Glo; type: biochemical; conditions: α E542K
T2 construct: purchased Reaction Biology Corporation (RBC)
Description: as §2, §3, §4, §5

PI3K (p110a(E545K)/p85a) = molecular target: T3, PI3K (p110a(E545K)/p85a) (Homo sapiens, UniProt P42336, E545K); assay: Lipid kinase inhibitory activity, ADP-Glo; type: biochemical; conditions: α E545K
T3 construct: purchased Reaction Biology Corporation (RBC)
Description: as §2, §3, §4, §5

[5] = molecular target: T4, PI3K (p110a(H1047R)/p85a) (Homo sapiens, UniProt P42336, H1047R); assay: Lipid kinase inhibitory activity, ADP-Glo; type: biochemical; conditions: α H1047R
T4 construct: purchased Reaction Biology Corporation (RBC)
Description: as §2, §3, §4, §5

PI3Ka (p110a/p85a) = molecular target: T5, PI3Ka (p110a/p85a) (Homo sapiens, UniProt P42336); assay: Lipid kinase inhibitory activity, ADP-Glo; type: biochemical; conditions: α
T5 construct: purchased Reaction Biology Corporation (RBC)
Description: as §2, §3, §4, §5

PI3Kb (p110b/p85a) = molecular target: T6, PI3Kb (p110b/p85a) (Homo sapiens, UniProt P42338); assay: Lipid kinase inhibitory activity, ADP-Glo; type: biochemical; conditions: β
T6 construct: purchased Reaction Biology Corporation (RBC)
Description: as §2, §3, §4, §5

PI3Kd (p110d/p85a) = molecular target: T7, PI3Kd (p110d/p85a) (Homo sapiens, UniProt O00329); assay: Lipid kinase inhibitory activity, ADP-Glo; type: biochemical; conditions: δ
T7 construct: purchased Reaction Biology Corporation (RBC)
Description: as §2, §3, §4, §5

PI3Kg (p110g) = molecular target: T8, PI3Kg (p110g) (Homo sapiens, UniProt P48736); assay: Lipid kinase inhibitory activity, ADP-Glo; type: biochemical; conditions: γ
T8 construct: purchased Reaction Biology Corporation (RBC)
Description: as §2, §3, §4, §5

PI3K = conditions: U.S. Pat. No. 6,838,457; cited from earlier work
cancer cell = conditions: U.S. Pat. No. 6,838,457; cited from earlier work

T8 sequence (P48736 whole entry): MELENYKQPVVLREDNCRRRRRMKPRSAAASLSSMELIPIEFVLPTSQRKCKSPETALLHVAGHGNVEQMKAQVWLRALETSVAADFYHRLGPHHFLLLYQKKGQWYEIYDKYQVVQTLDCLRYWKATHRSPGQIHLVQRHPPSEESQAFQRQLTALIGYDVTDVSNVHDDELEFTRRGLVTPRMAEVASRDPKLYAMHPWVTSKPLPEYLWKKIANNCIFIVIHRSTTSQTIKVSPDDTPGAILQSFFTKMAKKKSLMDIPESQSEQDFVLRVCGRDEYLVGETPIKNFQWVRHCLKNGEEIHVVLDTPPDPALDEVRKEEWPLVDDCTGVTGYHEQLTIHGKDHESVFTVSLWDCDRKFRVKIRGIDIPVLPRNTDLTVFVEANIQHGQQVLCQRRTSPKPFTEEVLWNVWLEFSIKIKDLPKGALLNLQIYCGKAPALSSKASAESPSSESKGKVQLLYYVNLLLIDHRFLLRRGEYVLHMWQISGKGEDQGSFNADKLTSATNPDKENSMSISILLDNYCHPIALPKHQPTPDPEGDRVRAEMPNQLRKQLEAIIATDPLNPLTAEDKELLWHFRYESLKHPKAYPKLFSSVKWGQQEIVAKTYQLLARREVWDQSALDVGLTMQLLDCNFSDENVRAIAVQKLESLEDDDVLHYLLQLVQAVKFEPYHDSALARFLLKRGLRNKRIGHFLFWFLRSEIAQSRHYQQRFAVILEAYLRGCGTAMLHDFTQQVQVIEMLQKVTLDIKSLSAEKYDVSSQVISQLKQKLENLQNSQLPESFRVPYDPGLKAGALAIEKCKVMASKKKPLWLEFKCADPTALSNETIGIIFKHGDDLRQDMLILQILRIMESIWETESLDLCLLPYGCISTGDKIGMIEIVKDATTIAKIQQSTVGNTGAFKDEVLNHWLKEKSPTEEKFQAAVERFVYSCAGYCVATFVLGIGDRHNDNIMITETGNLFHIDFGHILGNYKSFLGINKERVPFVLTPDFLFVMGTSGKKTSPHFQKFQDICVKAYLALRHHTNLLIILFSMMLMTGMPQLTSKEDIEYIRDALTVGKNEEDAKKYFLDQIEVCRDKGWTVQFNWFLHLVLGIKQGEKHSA
T5 sequence (P42336 whole entry): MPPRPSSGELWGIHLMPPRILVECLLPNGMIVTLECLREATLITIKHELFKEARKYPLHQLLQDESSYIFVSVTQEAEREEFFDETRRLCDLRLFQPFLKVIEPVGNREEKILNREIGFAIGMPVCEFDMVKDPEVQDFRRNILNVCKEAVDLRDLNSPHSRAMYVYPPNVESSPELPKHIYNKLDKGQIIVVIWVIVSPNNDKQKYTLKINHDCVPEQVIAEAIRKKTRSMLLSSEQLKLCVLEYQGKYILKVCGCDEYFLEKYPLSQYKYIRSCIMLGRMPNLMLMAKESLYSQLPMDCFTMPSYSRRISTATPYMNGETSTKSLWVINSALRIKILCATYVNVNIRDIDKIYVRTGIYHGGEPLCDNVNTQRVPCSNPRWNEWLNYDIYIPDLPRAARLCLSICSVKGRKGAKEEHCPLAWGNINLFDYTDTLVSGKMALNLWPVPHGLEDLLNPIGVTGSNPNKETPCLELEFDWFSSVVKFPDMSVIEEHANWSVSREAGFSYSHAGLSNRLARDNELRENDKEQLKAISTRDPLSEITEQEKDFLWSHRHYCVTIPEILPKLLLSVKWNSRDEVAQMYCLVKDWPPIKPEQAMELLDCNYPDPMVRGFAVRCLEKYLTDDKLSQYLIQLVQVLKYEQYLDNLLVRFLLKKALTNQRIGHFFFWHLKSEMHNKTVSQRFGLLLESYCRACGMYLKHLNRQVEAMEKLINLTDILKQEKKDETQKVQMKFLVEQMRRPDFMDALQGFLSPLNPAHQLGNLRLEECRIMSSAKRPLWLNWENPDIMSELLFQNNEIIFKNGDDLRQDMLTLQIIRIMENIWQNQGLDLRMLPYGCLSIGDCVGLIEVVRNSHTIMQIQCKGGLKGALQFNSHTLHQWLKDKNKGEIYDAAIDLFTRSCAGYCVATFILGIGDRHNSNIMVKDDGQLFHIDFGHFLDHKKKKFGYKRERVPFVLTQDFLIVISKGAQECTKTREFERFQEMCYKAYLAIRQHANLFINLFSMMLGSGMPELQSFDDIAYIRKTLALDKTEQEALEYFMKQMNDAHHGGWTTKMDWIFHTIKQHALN
T5 sequence (P27986 whole entry partner): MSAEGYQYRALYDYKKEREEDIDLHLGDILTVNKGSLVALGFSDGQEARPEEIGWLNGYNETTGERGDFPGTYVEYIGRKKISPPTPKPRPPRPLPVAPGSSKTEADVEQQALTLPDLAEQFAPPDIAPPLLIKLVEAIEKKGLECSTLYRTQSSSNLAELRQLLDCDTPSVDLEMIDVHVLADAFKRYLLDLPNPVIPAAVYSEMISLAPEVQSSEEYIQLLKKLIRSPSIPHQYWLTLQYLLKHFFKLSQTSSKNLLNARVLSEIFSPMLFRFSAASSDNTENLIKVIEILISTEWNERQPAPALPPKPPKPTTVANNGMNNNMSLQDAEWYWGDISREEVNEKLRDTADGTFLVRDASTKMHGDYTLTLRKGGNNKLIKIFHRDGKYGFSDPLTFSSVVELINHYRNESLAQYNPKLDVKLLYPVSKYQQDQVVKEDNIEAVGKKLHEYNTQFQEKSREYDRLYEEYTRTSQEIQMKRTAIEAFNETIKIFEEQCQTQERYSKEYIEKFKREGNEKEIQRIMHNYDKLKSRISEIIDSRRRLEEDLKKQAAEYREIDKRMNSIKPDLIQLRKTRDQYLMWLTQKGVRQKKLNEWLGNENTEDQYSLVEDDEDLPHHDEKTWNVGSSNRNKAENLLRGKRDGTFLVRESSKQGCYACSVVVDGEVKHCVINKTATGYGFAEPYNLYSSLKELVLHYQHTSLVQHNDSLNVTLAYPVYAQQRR
T4 sequence (P42336 whole entry H1047R): as the sequence (P42336 whole entry) above, with H1047R counted along it
T4 sequence (P27986 whole entry partner): as the sequence (P27986 whole entry partner) above
T3 sequence (P42336 whole entry E545K): as the sequence (P42336 whole entry) above, with E545K counted along it
T3 sequence (P27986 whole entry partner): as the sequence (P27986 whole entry partner) above
T6 sequence (P42338 whole entry): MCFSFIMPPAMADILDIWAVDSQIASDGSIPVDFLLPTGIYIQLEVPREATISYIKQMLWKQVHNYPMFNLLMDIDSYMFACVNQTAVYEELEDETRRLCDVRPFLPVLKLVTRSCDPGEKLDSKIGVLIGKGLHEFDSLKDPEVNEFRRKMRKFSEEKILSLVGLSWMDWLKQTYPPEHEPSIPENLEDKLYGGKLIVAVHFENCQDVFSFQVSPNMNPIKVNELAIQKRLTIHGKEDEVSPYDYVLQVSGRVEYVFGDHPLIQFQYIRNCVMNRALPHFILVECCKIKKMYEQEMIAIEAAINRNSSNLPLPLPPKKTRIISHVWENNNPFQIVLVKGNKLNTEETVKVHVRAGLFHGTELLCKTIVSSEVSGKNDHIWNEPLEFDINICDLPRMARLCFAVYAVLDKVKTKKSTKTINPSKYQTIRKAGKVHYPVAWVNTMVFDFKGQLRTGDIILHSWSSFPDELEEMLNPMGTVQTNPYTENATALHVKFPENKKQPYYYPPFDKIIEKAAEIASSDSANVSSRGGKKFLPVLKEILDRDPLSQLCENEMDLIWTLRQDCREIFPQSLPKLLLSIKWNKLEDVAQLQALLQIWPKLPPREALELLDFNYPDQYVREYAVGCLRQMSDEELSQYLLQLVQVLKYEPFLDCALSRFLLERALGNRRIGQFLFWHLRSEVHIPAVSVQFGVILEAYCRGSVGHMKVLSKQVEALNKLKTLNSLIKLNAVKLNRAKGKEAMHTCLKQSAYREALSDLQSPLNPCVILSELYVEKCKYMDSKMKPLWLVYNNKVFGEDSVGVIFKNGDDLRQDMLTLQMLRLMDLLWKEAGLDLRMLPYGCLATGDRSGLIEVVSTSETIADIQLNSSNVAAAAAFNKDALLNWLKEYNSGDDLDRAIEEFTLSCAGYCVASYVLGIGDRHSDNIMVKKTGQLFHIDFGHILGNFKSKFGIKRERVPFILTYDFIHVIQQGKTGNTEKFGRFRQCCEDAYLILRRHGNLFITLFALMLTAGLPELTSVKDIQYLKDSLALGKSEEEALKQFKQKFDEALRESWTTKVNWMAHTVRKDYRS
T6 sequence (P27986 whole entry partner): as the sequence (P27986 whole entry partner) above
T2 sequence (P42336 whole entry E542K): as the sequence (P42336 whole entry) above, with E542K counted along it
T2 sequence (P27986 whole entry partner): as the sequence (P27986 whole entry partner) above

## CCOC(=O)Oc1cccc(-c2nc(N3CCOCC3)c3sccc3n2)c1 [Compound 1.012, Ethyl (3-(4-morpholinothieno[3,2-d]pyrimidin-2-yl)phenyl) Carbonate]
[1]
  Metabolism to MTPP during permeation through human skin: completely metabolize into MTPP
[2]
  Saturation concentration in the gel formulation: 58 mg/mL
[3]; Day 0
  Relative Purity: 100%
[3]; Day 5
  Relative Purity: 99%
[3]; Day 10
  Relative Purity: 96%
[4]; 2 h
  Cumulative permeation, Compound 1.012: 0.0 μg/cm^2
  Hydrolysis of Cmpd. 1.012 to MTPP: 100%
[4]; 4 h
  Cumulative permeation, Compound 1.012: 0.0 μg/cm^2
  Hydrolysis of Cmpd. 1.012 to MTPP: 100%
[4]; 8 h
  Cumulative permeation, Compound 1.012: 0.0 μg/cm^2
  Hydrolysis of Cmpd. 1.012 to MTPP: 100%
[4]; 24 h
  Cumulative permeation, Compound 1.012: 0.0 μg/cm^2
  Hydrolysis of Cmpd. 1.012 to MTPP: 100%
[4]; 48 h
  Cumulative permeation, Compound 1.012: 0.0 μg/cm^2
  Hydrolysis of Cmpd. 1.012 to MTPP: 100%

## Oc1cccc(-c2nc(N3CCOCC3)c3sccc3n2)c1 [MTPP, 3-(4-morpholinothieno(3,2-d)pyrimidin-2-yl)phenol, reference compound]
[1]
  Metabolism to MTPP during permeation through human skin: permeated as its intact compound
MTOR/FRAP1
  IC50: 218 nM
PI3K (p110a(E542K)/p85a)
  IC50: 5.6 nM
PI3K (p110a(E545K)/p85a)
  IC50: 6.3 nM
[5]
  IC50: 7.2 nM
PI3Ka (p110a/p85a)
  IC50: 5.2 nM
PI3Kb (p110b/p85a)
  IC50: 38 nM
PI3Kd (p110d/p85a)
  IC50: 19 nM
PI3Kg (p110g)
  IC50: 90 nM
[4]; 2 h
  Cumulative permeation (intact compound): 0.23 μg/cm^2
[4]; 4 h
  Cumulative permeation (intact compound): 4.74 μg/cm^2
[4]; 8 h
  Cumulative permeation (intact compound): 15.85 μg/cm^2
[4]; 24 h
  Cumulative permeation (intact compound): 43.32 μg/cm^2
[4]; 48 h
  Cumulative permeation (intact compound): 70.13 μg/cm^2
PI3K
  PI3K inhibiting activity: excellent PI3K inhibiting activity
Cancer cell
  Cancer cell growth inhibiting activity: cancer cell growth inhibiting activity

Source: patent US12522614B2, “Topical phosphoinositide 3-kinase inhibitors” (VENTHERA, INC., priority 2019, dated 2026)
